In paper PMC5086919, “Antileukemic Scalarane Sesterterpenoids and Meroditerpenoid from Carteriospongia (Phyllospongia) sp., Induce Apoptosis via Dual Inhibitory Effects on Topoisomerase II and Hsp90” (Scientific Reports, 2016):

System: ER stress-related proteins in Molt 4 cells
Assay: Western blot of ER stress-related proteins
Format: cell-based, human
Settings: 0.0625 μg/mL, time-dependent
Protocol: Oxidative stress is manifested by ROS overexpression and cannot be balanced by the available antioxidant machinery. Compound 1 can damage the integrity of mitochondria, which are the major production sites of the superoxide anion, […]. The induction of the intracellular formation of ROS by 1 was determined with a carboxyl derivative of fluorescein, carboxy-H2DCFDA dye using flow cytometric analysis. […] In addition, ROS generation could induce ER stress leading to mitochondria-related apoptosis. To further investigate if ER stress is involved in the apoptotic effect induced by 1, Western blot analysis was used to determine the expression of ER stress-related proteins. […] Furthermore, the effect of 1 on the release of intracellular Ca^2+, was evaluated using fluorescent calcium indicator, Fluo 3. […] The effect of 1 (0.0625 μg/mL) at different time intervals (0, 3, 6 and 9 h) on the level of nuclear DNA integrity was determined. […]
Cell lysates were prepared by treating the cells for 30 min in RIPA lysis buffer, 1% Nonidet P-40, 0.5% sodium deoxycholate, 0.1% sodium dodecyl sulphate (SDS), 1 mM sodium orthovanadate, 100 μg/mL phenylmethylsulfonyl fluoride and 30 μg/mL aprotinin) (all chemicals were from Sigma)[38]. The lysates were centrifuged at 20,000 × g for 30 min, and the protein concentration in the supernatant was determined using a BCA protein assay kit (Pierce). […]

## CC[C@@]1(C)CCC[C@]2(C)[C@H]3C[C@@H](OC(=O)C[C@@H](C)O)[C@]4(C)[C@@H](C=O)C(C(C)=O)=CC[C@H]4[C@]3(C)CC[C@@H]12 (relative stereo) [Compound 1, 12β-(3′β-hydroxybutanoyloxy)-20,24-dimethyl-24-oxo-scalara-16-en-25-al]
  levels of ER stress-related proteins: promoted the levels of Bip, Chop, Grp 94 as well as the activation and cleavage of ATF 6 but suppressed the levels of PERK and IRE 1
